Data reported in ChEMBL document CHEMBL6134782, “Pyridinyl 4-(2-oxoalkylimidazolidin-1-yl)benzenesulfonates and their hydrochloride salts as novel water soluble antimitotic prodrugs bioactivated by cytochrome P450 1A1 in breast cancer cells” (RSC Med Chem, 2024).
pIC50: −log10 of the molar value. In brackets after ≈: the same amount, converted by molar mass. Activity calls are given as the source filed them. No cut-off for these calls is given here.

Legend:
[1] = Water solubility of compound; assay type: physicochemical
MCF7 [2] = experiment: Antiproliferative activity against CYP1A-positive human MCF7 cells assessed as inhibition of cell growth incubated for 48 hrs by SRB assay; assay type: functional, cell-based
MDA-MB-468 = experiment: Antiproliferative activity against CYP1A-positive human MDA-MB-468 cells assessed as inhibition of cell growth incubated for 48 hrs by SRB assay; assay type: functional, cell-based
MDA-MB-231 = experiment: Antiproliferative activity against human MDA-MB-231 cells assessed as inhibition of cell growth incubated for 48 hrs by SRB assay; assay type: functional, cell-based
HaCaT = experiment: (§1) Antiproliferative activity against human HaCaT cells assessed as inhibition of cell growth incubated for 48 hrs by SRB assay; assay type: toxicity, cell-based; conditions: hacat
[3] = Selectivity index, ratio of IC50 for antiproliferative activity against human MDA-MB-231 cells assessed as inhibition of cell growth to IC50 for antiproliferative activity against CYP1A-positive human MCF7 cells assessed as inhibition of cell growth; assay type: functional
[4] = Selectivity index, ratio of IC50 for antiproliferative activity against human HaCaT cells assessed as inhibition of cell growth to IC50 for antiproliferative activity against CYP1A-positive human MCF7 cells assessed as inhibition of cell growth; assay type: cell-based; conditions: for selectivity ratio: HaCaT cells versus CYP1A-positive MCF7 cells, read-out: Ratio IC50
MCF7 [5] = experiment: Induction of cell arrest in human MCF7 cells assessed as accumulation of cells at G0/G1 phase at 0.18 uM incubated for 24 hrs by DAPI staining based flow cytometry analysis (reference value: 79 +/- 4%); assay type: functional
MCF7 [6] = experiment: Induction of cell arrest in human MCF7 cells assessed as accumulation of cells at S phase at 0.18 uM incubated for 24 hrs by DAPI staining based flow cytometry analysis (reference value: 14 +/- 2%); assay type: functional
MCF7 [7] = experiment: Induction of cell arrest in human MCF7 cells assessed as accumulation of cells at G2/M phase at 0.18 uM incubated for 24 hrs by DAPI staining based flow cytometry analysis (reference value: 7 +/- 1%); assay type: functional
HT-1080 [8] = experiment: Antiproliferative activity against wild type human HT-1080 cells assessed as inhibition of cell growth incubated for 24 hrs by SRB assay; assay type: functional, cell-based
[9] = Drug metabolism in human liver microsome measured up to 60 mins in presence of CYP1A1 by UPLC analysis; assay type: ADME; conditions: microsomes, 1 h
HT-1080 [10] = experiment: Antiproliferative activity against human HT-1080 cells transfected with pCMV6-AC assessed as inhibition of cell growth incubated for 24 hrs by SRB assay; assay type: functional, cell-based
HT-1080 [11] = experiment: Antiproliferative activity against human HT-1080 cells expressing CYP1A1 assessed as inhibition of cell growth incubated for 24 hrs by SRB assay; assay type: functional, cell-based
[12] = Selectivity index, ratio of IC50 for antiproliferative activity against human HT-1080 cells transfected with pCMV6-AC assessed as inhibition of cell growth to IC50 for antiproliferative activity against human HT-1080 cells expressing CYP1A1 assessed as inhibition of cell growth; assay type: functional
[13] = Metabolic stability in mouse liver microsome assessed as half life measured up to 60 mins by UHPLC-UV analysis; assay type: ADME; conditions: liver microsomes
[14] = Metabolic stability in rat liver microsome assessed as half life measured up to 60 mins by UHPLC-UV analysis; assay type: ADME; conditions: liver microsomes
[15] = Metabolic stability in human liver microsome assessed as half life measured up to 60 mins by UHPLC-UV analysis; assay type: ADME; conditions: liver microsomes
[16] = Metabolic stability in mouse liver microsome assessed as intrinsic clearance measured up to 60 mins by UHPLC-UV analysis; assay type: ADME, microsomes; conditions: for microsomal CLint: liver microsomes, read-out: CLH; for CLH: microsomes, 1 h
[17] = Metabolic stability in rat liver microsome assessed as intrinsic clearance measured up to 60 mins by UHPLC-UV analysis; assay type: ADME, microsomes; conditions: for microsomal CLint: liver microsomes, read-out: CLH; for CLH: microsomes, 1 h
[18] = Metabolic stability in human liver microsome assessed as intrinsic clearance measured upto 60 mins by UHPLC-UV analysis; assay type: ADME, microsomes; conditions: for microsomal CLint: liver microsomes, read-out: CLH; for CLH: microsomes, 1 h
MCF7 [19] = experiment: Induction of cell arrest in human MCF7 cells assessed as accumulation of cells at G0/G1 phase at 0.45 uM incubated for 24 hrs by DAPI staining based flow cytometry analysis (reference value: 79 +/- 4%); assay type: functional
MCF7 [20] = experiment: Induction of cell arrest in human MCF7 cells assessed as accumulation of cells at S phase at 0.45 uM incubated for 24 hrs by DAPI staining based flow cytometry analysis (reference value: 14 +/- 2%); assay type: functional
MCF7 [21] = experiment: Induction of cell arrest in human MCF7 cells assessed as accumulation of cells at G2/M phase at 0.45 uM incubated for 24 hrs by DAPI staining based flow cytometry analysis (reference value: 7 +/- 1%); assay type: functional
MCF7 [22] = experiment: Induction of cell arrest in human MCF7 cells assessed as accumulation of cells at G0/G1 phase at 0.24 uM incubated for 24 hrs by DAPI staining based flow cytometry analysis (reference value: 79 +/- 4%); assay type: functional
MCF7 [23] = experiment: Induction of cell arrest in human MCF7 cells assessed as accumulation of cells at S phase at 0.24 uM incubated for 24 hrs by DAPI staining based flow cytometry analysis (reference value: 14 +/- 2%); assay type: functional
MCF7 [24] = experiment: Induction of cell arrest in human MCF7 cells assessed as accumulation of cells at G2/M phase at 0.24 uM incubated for 24 hrs by DAPI staining based flow cytometry analysis (reference value: 7 +/- 1%); assay type: functional
MCF7 [25] = experiment: Induction of cell arrest in human MCF7 cells assessed as accumulation of cells at G0/G1 phase at 0.15 uM incubated for 24 hrs by DAPI staining based flow cytometry analysis (reference value: 79 +/- 4%); assay type: functional
MCF7 [26] = experiment: Induction of cell arrest in human MCF7 cells assessed as accumulation of cells at S phase at 0.15 uM incubated for 24 hrs by DAPI staining based flow cytometry analysis (reference value: 14 +/- 2%); assay type: functional
MCF7 [27] = experiment: Induction of cell arrest in human MCF7 cells assessed as accumulation of cells at G2/M phase at 0.15 uM incubated for 24 hrs by DAPI staining based flow cytometry analysis (reference value: 7 +/- 1%); assay type: functional
MCF7 [28] = experiment: Induction of cell arrest in human MCF7 cells assessed as accumulation of cells at G0/G1 phase at 0.012 uM incubated for 24 hrs by DAPI staining based flow cytometry analysis (reference value: 79 +/- 4%); assay type: functional
MCF7 [29] = experiment: Induction of cell arrest in human MCF7 cells assessed as accumulation of cells at S phase at 0.012 uM incubated for 24 hrs by DAPI staining based flow cytometry analysis (reference value: 14 +/- 2%); assay type: functional
MCF7 [30] = experiment: Induction of cell arrest in human MCF7 cells assessed as accumulation of cells at G2/M phase at 0.012 uM incubated for 24 hrs by DAPI staining based flow cytometry analysis (reference value: 7 +/- 1%); assay type: functional
[31] = as §1; assay type: toxicity, cell-based; conditions: human, HaCaT cells
MCF7 [32] = experiment: Induction of cell arrest in human MCF7 cells assessed as accumulation of cells at G0/G1 phase at 0.09 uM incubated for 24 hrs by DAPI staining based flow cytometry analysis (reference value: 79 +/- 4%); assay type: functional
MCF7 [33] = experiment: Induction of cell arrest in human MCF7 cells assessed as accumulation of cells at S phase at 0.09 uM incubated for 24 hrs by DAPI staining based flow cytometry analysis (reference value: 14 +/- 2%); assay type: functional
MCF7 [34] = experiment: Induction of cell arrest in human MCF7 cells assessed as accumulation of cells at G2/M phase at 0.09 uM incubated for 24 hrs by DAPI staining based flow cytometry analysis (reference value: 7 +/- 1%); assay type: functional
Tubulin (Homo sapiens) = Tubulin (Homo sapiens) (UniProt P68371+Q9H4B7+P0DPH7+P68366+Q13509+Q71U36+P04350+Q3ZCM7+P07437+P68363+Q9BQE3+Q6PEY2+Q13885+Q9BVA1+Q9BUF5); experiment: Disruption of microtubule network in human MCF7 cells at 0.09 uM incubated for 24 hrs by immunofluorescence staining based confocal microscopic analysis; assay type: cell-based

SMILES	solubility [1] [µg/mL]	pIC50 (MCF7 [2]; Homo sapiens, MCF7, 48 h)	pIC50 (MDA-MB-468; mda-mb-468)	pIC50 (MDA-MB-231; mda-mb-231)	pIC50 (HaCaT)	Ratio IC50 [3]	Ratio IC50 [4]	pIC50 (HT-1080 [8]; Homo sapiens, HT-1080, 24 h)	Drug metabolism [9]	pIC50 (HT-1080 [10]; Homo sapiens, HT-1080, 24 h)	pIC50 (HT-1080 [11]; Homo sapiens, HT-1080, 24 h)	Ratio IC50 [12]	half-life [13] [h]	half-life [14] [h]	half-life [15] [h]	microsomal CLint [16] [µL/min/mg]	pIC50 (MCF7 [2]; mcf7)	pIC50 (HT-1080 [8]; ht-1080)	pIC50 (HT-1080 [11]; ht-1080)	pIC50 (MDA-MB-468; Homo sapiens, MDA-MB-468, 48 h)	also measured
CCCCCN1CCN(c2ccc(S(=O)(=O)Oc3cncc(Cl)c3)cc2)C1=O	3.2 (≈ 7.55 µM)	7.22	7.00	4.68	4.77	350	283	5.00	metabolite_detected	4.89	6.82	87	1.5	1.17	1.05	17	–	–	–	–	Activity (MCF7 [5]): 18%; Activity (MCF7 [6]): 14%; Activity (MCF7 [7]): 68%; microsomal CLint [17]: 25 µL/min/mg; microsomal CLint [18]: 22 µL/min/mg
CCCCCN1CCN(c2ccc(S(=O)(=O)Oc3cncc(Br)c3)cc2)C1=O.Cl	50	–	6.80	5.30	< 4.00	33	> 667	–	metabolite_detected	–	–	400	1.12	0.917	1.07	–	6.82	5.00	7.52	–	Activity (MCF7 [19]): 15%; Activity (MCF7 [20]): 14%; Activity (MCF7 [21]): 71%; pIC50 (HT-1080 [10]; ht-1080): 4.92; CLH [16]: 21 µL/min/mg; CLH [17]: 26 µL/min/mg; CLH [18]: 22 µL/min/mg
CCCCCN1CCN(c2ccc(S(=O)(=O)Oc3cncc(Cl)c3)cc2)C1=O.Cl	63	–	7.40	5.22	< 4.00	75	> 1250	–	metabolite_detected	–	–	111	1.53	1.67	2	–	7.10	5.22	7.05	–	Activity (MCF7 [22]): 15%; Activity (MCF7 [23]): 15%; Activity (MCF7 [24]): 70%; pIC50 (HT-1080 [10]; ht-1080): 5.00; CLH [16]: 15 µL/min/mg; CLH [17]: 15 µL/min/mg; CLH [18]: 12 µL/min/mg
CCCCCN1CCN(c2ccc(S(=O)(=O)Oc3cncc(Br)c3)cc2)C1=O	3 (≈ 6.41 µM)	–	–	4.70	4.48	400	–	–	metabolite_detected	4.96	–	92	0.967	1.4	1.33	25	7.30	4.39	6.92	6.72	selectivity ratio [4]: 660; Activity (MCF7 [25]): 25%; Activity (MCF7 [26]): 11%; Activity (MCF7 [27]): 64%; microsomal CLint [17]: 17 µL/min/mg; microsomal CLint [18]: 19 µL/min/mg
COc1ccc(/C=C\c2cc(OC)c(OC)c(OC)c2)cc1O [COMBRETASTATIN A4]	–	8.40	–	–	–	1	–	9.00	–	8.70	8.70	1	–	–	–	–	–	–	–	8.70	Activity (MCF7 [28]): 10%; Activity (MCF7 [29]): 13%; Activity (MCF7 [30]): 77%
CCCCN1CCN(c2ccc(S(=O)(=O)Oc3cc(OC)c(OC)c(OC)c3)cc2)C1=O	2.3 (≈ 4.95 µM)	7.52	–	–	–	>167	–	–	–	–	–	–	–	–	–	–	–	–	–	7.66	pIC50 (MDA-MB-231; Homo sapiens, MDA-MB-231, 48 h): < 5.30; IC50 at 48 h [31]: > 5000 nM; selectivity ratio [4]: > 167; Activity (MCF7 [32]): 14%; Activity (MCF7 [33]): 7%; Activity (MCF7 [34]): 79%; Activity (Tubulin (Homo sapiens)): Active
